Reference: ChEMBL document CHEMBL5338752, “Carbamate JNK3 Inhibitors Show Promise as Effective Treatments for Alzheimer's Disease: In Vivo Studies on Mouse Models” (J Med Chem, 2023)
Calls of active or inactive are those of the source. The calls are words filed in the database; no cut-off is given here.

Tests used:
Mus musculus [1] = test: Anti-alzheimer activity against triple transgenic mouse alzheimer disease model assessed as time spent in platform quadrant at 60 mg/kg, po administered daily for 2.2 months and measured after 137 days by Morris water maze test (reference value: 12.26+/-2.34 sec); format: functional; settings: time 137 day
[2] = biological target: Mitogen-activated protein kinase 10 (Rattus norvegicus) (UniProt P49187); test: Inhibition of A-beta (1 to 42) induced JNK3 activation in rat cortex neuron cells assessed as reduction in c-Jun phosphorylation levels at 10 to 20 uM incubated for 24 hrs in presence of A-beta (1 to 42) by Western blot analysis; format: cell-based; settings: dose 10-20 µM
[3] = biological target: T1, Mitogen-activated protein kinase 9 (Homo sapiens, UniProt P45984); test: Inhibition of JNK2 (unknown origin) using ATF2 as substrate incubated for 40 mins in presence of [gamma33P]ATP by scintillation counting analysis
Target sequence in this assay (P45984 whole entry): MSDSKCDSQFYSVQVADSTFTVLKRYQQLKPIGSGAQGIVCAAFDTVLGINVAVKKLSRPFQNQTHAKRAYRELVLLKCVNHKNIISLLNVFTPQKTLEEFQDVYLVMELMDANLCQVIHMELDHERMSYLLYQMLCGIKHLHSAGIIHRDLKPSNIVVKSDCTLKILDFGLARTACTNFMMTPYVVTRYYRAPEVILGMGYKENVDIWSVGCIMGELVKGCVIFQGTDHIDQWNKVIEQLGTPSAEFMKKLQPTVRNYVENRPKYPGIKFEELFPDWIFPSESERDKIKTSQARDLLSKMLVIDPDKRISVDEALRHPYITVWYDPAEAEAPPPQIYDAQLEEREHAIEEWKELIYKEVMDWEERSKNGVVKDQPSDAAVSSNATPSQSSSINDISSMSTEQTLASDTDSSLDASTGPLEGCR

Mus musculus [4] = test: Anti-alzheimer activity against APP/PS1 dE9 double transgenic mouse model assessed as spontaneous alteration at 60 mg/kg, po administered daily for 2 months and measured after 57 days by Y-maze test (reference value: 40.75+/-2.25%); format: functional; settings: time 57 day
Mus musculus [5] = test: Anti-alzheimer activity against triple transgenic mouse alzheimer disease model assessed as path length at 60 mg/kg, po measured upto 5 days by Morris water maze test (reference value: 608.85+/-39.27 cm); format: functional; settings: time <= 5 day
[6] = biological target: Mitogen-activated protein kinase 10 (Rattus norvegicus) (UniProt P49187); test: Inhibition of anisomycin induced JNK3 activation in rat cortex neuron cells assessed as reduction in Jun phosphorylation levels at 10 to 20 uM preincubated for 90 mins followed by anisomycin addition and measured after 40 mins by Western blot analysis; format: cell-based; settings: dose 10-20 µM, time 130.0 min
[7] = biological target: T2, Mitogen-activated protein kinase 10 (Homo sapiens, UniProt P53779); test: Inhibition of JNK3 (unknown origin) using ATF2 as substrate incubated for 40 mins in presence of [gamma33P]ATP by scintillation counting analysis
[8] = biological target: Mitogen-activated protein kinase 8 (Homo sapiens, UniProt P45983); test: Inhibition of JNK1 (unknown origin) using ATF2 as substrate incubated for 40 mins in presence of [gamma33P]ATP by scintillation counting analysis
Mus musculus [9] = test: Anti-alzheimer activity against APP/PS1 dE9 double transgenic mouse model assessed as spontaneous alteration at 30 mg/kg, po administered daily for 2 months and measured after 57 days by Y-maze test (reference value: 40.75+/-2.25%); format: functional; settings: time 57 day
[10] = biological target: Mitogen-activated protein kinase 10 (Rattus norvegicus) (UniProt P49187); test: Inhibition of anisomycin induced JNK3 activation in rat cortex neuron cells assessed as inhibition of APP phosphorylation at 10 to 20 uM preincubated for 90 mins followed by anisomycin addition and measured after 40 mins by Western blot analysis; format: cell-based; settings: dose 10-20 µM
[11] = Half life in sixteen hrs fasted Sprague-Dawley rat at 3 mg/kg, po measured upto 24 hrs by LC-MS/MS analysis; format: ADME, organism-based; settings: in vivo
Neuron [12] = test: Neuroprotective activity against rat neuron cells assessed as inhibition of Abeta(1-42)-induced cytotoxicity by measuring increase in cell viability at 20 uM incubated for 24 hrs by MTT assay relative to control; format: functional
Mus musculus [13] = test: Anti-alzheimer activity against APP/PS1 dE9 double transgenic mouse model assessed as escape latency time at 30 mg/kg, po administered daily for 2 months and measured after 60 days by Passive avoidance test (reference value: 28.6+/-4.3 sec); format: functional; settings: time 60 day
[14] = biological target: T1, Mitogen-activated protein kinase 9; test: Inhibition of JNK2 (unknown origin) at 1.0 uM preincubated for 20 mins followed by 33P-ATP addition and measured after 2 hrs by P81 filter binding method relative to control; settings: time 140.0 min
Target sequence in this assay (P45984 whole entry, looked up): as the sequence (P45984 whole entry) above

Mus musculus [15] = test: Anti-alzheimer activity against triple transgenic mouse alzheimer disease model assessed as time spent in target zone at 60 mg/kg, po administered daily for 2.2 months and measured after 137 days by Morris water maze test (reference value: 4.48+/-1.63 sec); format: functional; settings: time 137 day
[16] = Effective permeability of compound by […] method; format: ADME; settings: read-out: Peff
[17] = AUClast in sixteen hrs fasted Sprague-Dawley rat at 3 mg/kg, po measured upto 24 hrs by LC-MS/MS analysis; format: ADME, organism-based; parameters: dose 3 mg/kg, time < 24 hrs, route po; settings: in vivo
Mus musculus [18] = test: Anti-alzheimer activity against triple transgenic mouse alzheimer disease model assessed as reduction in tau phosphorylation level at T181 residue in hippocampal tissue at 30 to 60 mg/kg by Western blot analysis; format: functional, organism-based; settings: dose 30-60 mg/kg
[19] = Apparent permeability of the compound across basolateral side to apical side in human Caco-2 cells; format: ADME, cell-based
Neuron [20] = test: Inhibition of apoptosis in rat cortex neuron cells assessed as prevention of A-beta (1 to 42) induced cleaved caspase-3 formation at 10 to 20 uM measured after 24 hrs by Western blot analysis; format: functional, cell-based; settings: dose 10-20 µM
Mus musculus [21] = test: Anti-alzheimer activity against triple transgenic mouse alzheimer disease model assessed as spontaneous alteration at 30 mg/kg, po administered daily for 2.2 months and measured after 119 days by Y-maze test (reference value: 45.55+/-2.30%); format: functional; settings: time 119 day
Mus musculus [22] = test: Anti-alzheimer activity against triple transgenic mouse alzheimer disease model assessed as escape latency time at 30 mg/kg, po measured upto 5 days by Morris water maze test (reference value: 58.62+/-1.15 sec); format: functional; settings: time <= 5 day
[23] = biological target: T2, Mitogen-activated protein kinase 10; test: Inhibition of JNK3 (unknown origin) at 1.0 uM preincubated for 20 mins followed by 33P-ATP addition and measured after 2 hrs by P81 filter binding method relative to control; settings: time 140.0 min
Mus musculus [24] = test: Anti-alzheimer activity against APP/PS1 dE9 double transgenic mouse model assessed as escape latency time at 60 mg/kg, po administered daily for 2 months and measured after 60 days by Passive avoidance test (reference value: 28.6+/-4.3 sec); format: functional; settings: time 60 day
Neuron [25] = test: Neuroprotective activity against rat neuron cells assessed as inhibition of Abeta(1-42)-induced cytotoxicity by measuring increase in cell viability at 20 uM incubated for 48 hrs by MTT assay relative to control; format: functional
Mus musculus [26] = test: Anti-alzheimer activity against triple transgenic mouse alzheimer disease model assessed as latency time at 60 mg/kg, po administered daily for 2.2 months and measured after 122 to 123 days by passive avoidance test (reference value: 31.3+/-6.9 sec); format: functional; settings: time 122-123 day
[27] = Efflux ratio of apparent permeability across basolateral to apical side to apical to basolateral side in human Caco-2 cells; format: ADME, cell-based
Mus musculus [28] = test: Anti-alzheimer activity against triple transgenic mouse alzheimer disease model assessed as spontaneous alteration at 60 mg/kg, po administered daily for 2.2 months and measured after 119 days by Y-maze test (reference value: 45.55+/-2.30%); format: functional; settings: time 119 day
Mus musculus [29] = test: Anti-alzheimer activity against APP/PS1 dE9 double transgenic mouse model assessed as time spent in target zone at 60 mg/kg, po administered daily for 2 months and measured after 74 days by Morris water maze test (reference value: 6.76+/-3.20 sec); format: functional; settings: time 74 day
[30] = Tmax in sixteen hrs fasted Sprague-Dawley rat at 3 mg/kg, po measured upto 24 hrs by LC-MS/MS analysis; format: ADME, organism-based; settings: in vivo
[31] = biological target: Mitogen-activated protein kinase 14 (Homo sapiens) (UniProt Q16539); test: Inhibition of p38alpha (unknown origin) at 1.0 uM preincubated for 20 mins followed by 33P-ATP addition and measured after 2 hrs by P81 filter binding method relative to control; settings: time 140.0 min
Sequence of Mitogen-activated protein kinase 14 (Homo sapiens) (Q16539 whole entry): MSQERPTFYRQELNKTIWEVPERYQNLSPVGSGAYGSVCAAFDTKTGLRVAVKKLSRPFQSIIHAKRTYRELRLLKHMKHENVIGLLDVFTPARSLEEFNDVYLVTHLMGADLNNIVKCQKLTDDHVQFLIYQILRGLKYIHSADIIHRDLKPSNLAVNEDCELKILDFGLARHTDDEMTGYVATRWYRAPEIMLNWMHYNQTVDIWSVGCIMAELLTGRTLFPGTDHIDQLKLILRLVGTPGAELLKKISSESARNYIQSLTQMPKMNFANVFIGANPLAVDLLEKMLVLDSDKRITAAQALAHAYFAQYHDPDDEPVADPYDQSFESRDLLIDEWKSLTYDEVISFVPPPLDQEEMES

Sequence of Mitogen-activated protein kinase 10 (Rattus norvegicus) (P49187 whole entry): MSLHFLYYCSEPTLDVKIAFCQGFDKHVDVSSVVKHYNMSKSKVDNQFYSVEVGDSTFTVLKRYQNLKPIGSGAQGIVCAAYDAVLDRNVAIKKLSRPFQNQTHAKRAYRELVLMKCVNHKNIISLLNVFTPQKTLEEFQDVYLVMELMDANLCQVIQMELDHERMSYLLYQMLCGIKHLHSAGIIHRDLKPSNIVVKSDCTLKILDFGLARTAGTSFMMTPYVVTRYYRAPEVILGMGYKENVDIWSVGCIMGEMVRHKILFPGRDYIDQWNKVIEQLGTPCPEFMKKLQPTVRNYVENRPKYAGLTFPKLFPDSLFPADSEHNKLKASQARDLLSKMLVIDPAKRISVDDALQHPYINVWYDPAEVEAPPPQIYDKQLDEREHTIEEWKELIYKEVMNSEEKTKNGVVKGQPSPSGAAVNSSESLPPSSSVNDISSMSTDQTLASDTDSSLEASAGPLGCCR
T2 sequence (P53779 whole entry): as the sequence (P49187 whole entry) above, with H27Q, S32Y, V33I, V34A counted along it
Sequence of Mitogen-activated protein kinase 8 (P45983 whole entry): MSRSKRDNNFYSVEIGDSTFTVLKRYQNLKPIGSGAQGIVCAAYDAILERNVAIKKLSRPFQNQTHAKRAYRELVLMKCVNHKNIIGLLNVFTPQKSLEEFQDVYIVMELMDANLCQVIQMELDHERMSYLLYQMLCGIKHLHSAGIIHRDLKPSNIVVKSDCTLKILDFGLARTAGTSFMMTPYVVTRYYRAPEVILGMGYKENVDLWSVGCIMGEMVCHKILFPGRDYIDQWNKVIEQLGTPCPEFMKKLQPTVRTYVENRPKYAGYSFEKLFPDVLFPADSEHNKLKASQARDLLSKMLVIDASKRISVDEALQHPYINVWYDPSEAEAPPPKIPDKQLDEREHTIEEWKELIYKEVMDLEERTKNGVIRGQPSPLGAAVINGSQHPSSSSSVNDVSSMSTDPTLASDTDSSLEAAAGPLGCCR

CNC(=O)Oc1cc(F)c2nc(-c3ccc4ccccc4c3)n(-c3ccnc(N[C@H]4CCCN(C(=O)C5CC5)C4)n3)c2c1
Time (Mus musculus [1]): 22.59 s
inhibition [2]: Active
IC50 [3]: 2.2 µM
Activity (Mus musculus [4]): 54.23%
Activity (Mus musculus [5]): 372.7 cm
inhibition [6]: Active
IC50 [7]: 0.021 µM
IC50 [8]: > 10 µM
Activity (Mus musculus [9]): 50.6%
inhibition [10]: Active
half-life [11]: 58.2 min
Activity (Neuron [12]): 47.5%
Time (Mus musculus [13]): 44.2 s
inhibition [14]: 20%
Time (Mus musculus [15]): 16.28 s
Papp [16]: 55.8 ×10⁻⁶ cm/s
AUC(0-t) at 24 h [17]: 727 ng·h/mL
Activity (Mus musculus [18]): Active
Papp B→A [19]: 25.2 ×10⁻⁶ cm/s
inhibition (Neuron [20]): Active
Activity (Mus musculus [21]): 49.78%
Time (Mus musculus [22]): 26.61 s
inhibition [23]: 100%
Time (Mus musculus [24]): 46.5 s
Activity (Neuron [25]): 28.4%
Time (Mus musculus [26]): 64.4 s
efflux ratio [27]: 14.7
Activity (Mus musculus [28]): 54.62%
Time (Mus musculus [29]): 16.27 s
Tmax [30]: 23.4 min
inhibition [31]: 20%
